The results in this text go back to patent US20130210887A1, “DENDRIMERS AS NON-VIRAL VEHICLES FOR GENE THERAPY” (UNIVERSIDAD DE CASTILLA LA MANCHA, priority 2010, published 2013).

Structures are written as SMILES.

The assay deals with siRNA. Nature of the assay: Gel shift (electrophoretic shift in agarose gel) of siRNA by coupling to the dendrimer. In kind it is binding. The settings on record: 2 μM siRNA; 30 min incubation at ambient temperature; 1% agarose gel, 15 min at 60V. An excerpt:
FIG. 1, relates to the electrophoretic shift analysis of siRNA by the coupling to the compound of general formula (I). The numbers in (A) correspond to different N/P ratios (nitrogenated amines in compound of general formula (0/phosphates in siRNA): (1) 1:0 (siRNA alone), (2) 6:1, (3) 12:1, (4) 24:1, (5) 48:1, (6) 96:1, (7) 192:1 and (8) 384:1. The densitometric analysis of the results of the gel shift experiment are shown in (B).
The compound complexes of general formula (I)-siRNA were formed by mixing equal quantities of volume of the solution that contained compound of general formula (I) and of that containing the siRNA (Org Biomol Chem. 2007. 5: 1886-1893; Pharm Res. 2009. 26: 1181-1191), and incubating the mixture under stirring during 30 minutes at ambient temperature. Both molecules were dissolved in DEPC water (free from RNAses).
The shift in agarose gel was used to ascertain the N/P ratio (nitrogenated amines in compound of general formula (I)/phosphates in siRNA) adapted to obtain the greatest efficacy of bonding possible between both molecules (Mol Biol Rep. 2009. 36: 1083-1093; Am J Med Genet B Neuropsychiatr Genet. 2008. 147B: 769-777). The mixing of different concentrations of compound of general formula (I) and of 250 ng of siRNA was tested. […] The gels were photographed and the bands were quantified with a suitable image analysis system (Quantity One). […]

For the molecule `NCCNC(=O)CCN(CCC(=O)NCCN)CCN(CCC(=O)NCCN)Cc1ccc(/C=C/c2cc(/C=C/c3ccc(CN(CCC(=O)NCCN)CCN(CCC(=O)NCCN)CCC(=O)NCCN)cc3)cc(/C=C/c3ccc(CN(CCC(=O)NCCN)CCN(CCC(=O)NCCN)CCC(=O)NCCN)cc3)c2)cc1` [compound of general formula (I)], the “concentration of compound of general formula (I) at which all the siRNA is fixed (P/N ratio of 12:1)” value is 22 µM.
